Experimental data taken from patent US8716292B2, “Riminophenazines with 2-(heteroaryl)amino substituents and their anti-microbial activity” (priority 2010, dated 2014).
In brackets after ≈: the same amount, converted by molar mass.

Tested on: Mycobacterium tuberculosis H37Rv strains
Experiment: In vitro assay for antimicrobial susceptibility (microplate Alamar blue MIC)
Assay type: cell-based
Conditions: Mycobacterium tuberculosis, H37RV, 7H9, Alamar blue, inhibition ≧90%; read-out: MIC (μg/mL) against H37Rv

Q: `CC(C)/N=c1\cc2n(-c3ccc(OC(F)(F)F)cc3)c3ccccc3nc-2cc1Nc1ncccn1` [TBI-951, 5-(4-Trifluoromethoxyphenyl)-3-(1-methylethyl)imino-2-(pyrimidin-2-yl)amino-3,5-dihydrophenazine] was tested. Which MIC did it give?
A: The MIC was 0.019 µg/mL (≈ 0.0387 µM).

Q: With `CC(C)/N=c1\cc2n(-c3ccc(Cl)cc3)c3ccccc3nc-2cc1Nc1ccccn1` [TBI-1076, 5-(4-Chlorophenyl)-3-(1-methylethyl)imino-2-(2-pyridyl)amino-3,5-dihydrophenazine] as the molecule, how does the MIC read?
A: Its MIC is 0.014 µg/mL (≈ 0.0318 µM).

Same assay, conditions: Mycobacterium tuberculosis, H37RV, in vitro, Mycobacterium tuberculosis H37Rv strains; read-out: MIC (μg/mL) against H37Rv

Q: Which MIC does the source give for `COc1ncccc1Nc1cc2nc3cc(C#N)ccc3n(-c3ccc(F)cc3)c-2c/c1=N\C1CCOCC1` [TBI-1066, 8-Cyano-5-(4-fluorophenyl)-3-(4-tetrahydropyranyl)imino-2-(2-methoxy-3-pyridyl)amino-3,5-dihydrophenazine] here?
A: The MIC was over 6.64 µg/mL.

Q: Which MIC does the source give for `COc1ccc(Nc2cc3nc4ccccc4n(-c4ccc(F)cc4)c-3c/c2=N\[C@H]2CC[C@H](OC)CC2)cn1` [TBI-933, 5-(4-Fluorophenyl)-3-(1′,4′-trans-4-methoxycyclohexyl)imino-2-(6-methoxy-3-pyridyl)amino-3,5-dihydrophenazine] here?
A: The MIC was 0.175 µg/mL (≈ 0.334 µM).

Q: Which MIC does the source give for `CN1CCC(/N=c2\cc3n(-c4ccccc4)c4ccccc4nc-3cc2Nc2cccnc2)CC1` [TBI-055, 5-Phenyl-3-(N-methyl-4-piperidyl)imino-2-(3-pyridyl)amino-3,5-dihydrophenazine] here?
A: Its MIC is 0.5 µg/mL (≈ 1.09 µM).

Q: How did the MIC turn out when `COc1ncccc1Nc1cc2nc3ccccc3n(-c3ccccc3)c-2c/c1=N\C1CCC1` [TBI-505, 5-Phenyl-3-cyclobutylimino-2-(2-methoxy-3-pyridyl)amino-3,5-dihydrophenazine] was run?
A: The MIC was 0.043 µg/mL (≈ 0.0961 µM).

Q: How did the MIC turn out when `COc1ncccc1Nc1cc2nc3ccccc3n(-c3ccc(Cl)cc3)c-2c/c1=N\C(C)C` [TBI-438, 5-(4-Chlorophenyl)-3-(1-methylethyl)imino-2-(2-methoxy-3-pyridyl)amino-3,5-dihydrophenazine] was run?
A: The MIC was 0.03 µg/mL (≈ 0.0638 µM).

Q: For `COc1ncccc1Nc1cc2nc3ccccc3n(-c3ccc(F)cc3)c-2c/c1=N\C1CCOCC1` [TBI-1003, 5-(4-Fluorophenyl)-3-(4-tetrahydropyranyl)imino-2-(2-methoxy-3-pyridyl)amino-3,5-dihydrophenazine], which MIC is on record?
A: Its MIC is 0.039 µg/mL (≈ 0.0787 µM).

Q: Which MIC does the source give for `Cc1ccc(-n2c3c/c(=N\C(C)C)c(Nc4cccnc4C)cc-3nc3ccccc32)cc1` [TBI-321, 5-(4-Methylphenyl)-3-(1-methylethyl)imino-2-(2-methyl-3-pyridyl)amino-3,5-dihydrophenazine] here?
A: Its MIC is 0.419 µg/mL (≈ 0.966 µM).

Q: `COc1ncccc1Nc1cc2nc3ccccc3n(-c3ccc(F)c(F)c3)c-2c/c1=N\C1CCC1` [TBI-530, 5-(3,4-Difluorophenyl)-3-cyclobutylimino-2-(2-methoxy-3-pyridyl)amino-3,5-dihydrophenazine] was tested. Which MIC did it give?
A: Its MIC is 0.04 µg/mL (≈ 0.0827 µM).

Q: Which MIC does the source give for `CC(=O)Nc1ccc(-n2c3c/c(=N\C(C)C)c(Nc4ccc(C)nc4)cc-3nc3ccccc32)cc1` [TBI-1228, 5-(4-Acetamidophenyl)-3-(1-methylethyl)imino-2-(6-methyl-3-pyridyl)amino-3,5-dihydrophenazine] here?
A: The MIC was 2.4 µg/mL (≈ 5.03 µM).

Q: With `Cc1ccc(Nc2cc3nc4ccccc4n(-c4ccc(Cl)c(Cl)c4)c-3c/c2=N\C2CCCCC2)cn1` [TBI-354, 5-(3,4-Dichlorophenyl)-3-cyclohexylimino-2-(6-methyl-3-pyridyl)amino-3,5-dihydrophenazine] as the molecule, how does the MIC read?
A: The MIC was 0.229 µg/mL (≈ 0.433 µM).

Q: With `COc1ncccc1Nc1cc2nc3ccccc3n(-c3ccc(NC(C)=O)cc3)c-2c/c1=N\C1CCCCC1` [TBI-1223, 5-(4-Acetamidophenyl)-3-cyclohexylimino-2-(2-methoxy-3-pyridyl)amino-3,5-dihydrophenazine] as the molecule, how does the MIC read?
A: Its MIC is 1.49 µg/mL (≈ 2.79 µM).

Q: `FC(F)(F)Oc1ccc(-n2c3c/c(=N\CCN4CCOCC4)c(Nc4cccnc4)cc-3nc3ccccc32)cc1` [TBI-160] was tested. Which MIC did it give?
A: Its MIC is 0.125 µg/mL (≈ 0.223 µM).

Q: Which MIC does the source give for `COc1ncccc1Nc1cc2nc3ccccc3n(-c3cccc(OC(F)(F)F)c3)c-2c/c1=N\C1CCC(OC)CC1` (stereo not drawn) [TBI-1039, 5-(3-Trifluoromethoxyphenyl)-3-(4-methoxycyclohexyl)imino-2-(2-methoxy-3-pyridyl)amino-3,5-dihydrophenazine] here?
A: Its MIC is 0.059 µg/mL (≈ 0.1 µM).
